Source: PubChem BioAssay (NCI)
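All cell lines were grown in 96-well plates and treated with compound for 48 hours. TGI marks complete inhibition of growth.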

Tests used:
Assay in all cases: NCI-60 cell line screen, 48 h
[1] = system: OVCAR-4 ovarian
[2] = system: HOP-92 NSCLC
[3] = system: DMS 273 small cell lung
[4] = system: UACC-62 melanoma
[5] = system: K-562 leukemia
[6] = system: UACC-257 melanoma
[7] = system: OVCAR-3 ovarian
[8] = system: SK-MEL-5 melanoma
[9] = system: CAKI-1 renal
[10] = system: SN12C renal
[11] = system: OVCAR-8 ovarian
[12] = system: DMS 114 small cell lung
[13] = system: NCI-H522 lung
[14] = system: TK-10 renal
[15] = system: SNB-75 CNS
[16] = system: CCRF-CEM leukemia
[17] = system: SW-620 colon
[18] = system: HL-60(TB) leukemia
[19] = system: U251 CNS
[20] = system: SF-268 CNS
[21] = system: SK-MEL-28 melanoma
[22] = system: RXF 393 renal
[23] = system: LXFL 529 NSCLC
[24] = system: MALME-3M melanoma
[25] = system: KM12 colon
[26] = system: SF-539 CNS
[27] = system: NCI-H23 lung
[28] = system: A498 renal
[29] = system: OVCAR-5 ovarian
[30] = system: 786-0 renal
[31] = system: RPMI-8226 leukemia
[32] = system: HCT-116 colon
[33] = system: SR leukemia
[34] = system: SF-295 CNS
[35] = system: NCI-H460 lung
[36] = system: NCI-H226 lung
[37] = system: COLO 205 colon
[38] = system: SK-OV-3 ovarian
[39] = system: HCC-2998 colon
[40] = system: EKVX NSCLC
[41] = system: SNB-19 CNS
[42] = system: LOX IMVI melanoma
[43] = system: UO-31 renal
[44] = system: M19-MEL melanoma
[45] = system: SK-MEL-2 melanoma
[46] = system: IGROV1 ovarian
[47] = system: HT29 colon
[48] = system: DLD-1 colon
[49] = system: A549 NSCLC
[50] = system: M14 melanoma
[51] = system: ACHN renal
[52] = system: HOP-62 NSCLC
[53] = system: SNB-78 CNS

For `CCC(=O)OC1CCn2c1nc1c2C(=O)C(C)=C(NC(C)=O)C1=O` (stereo not drawn), the TGI [1] was 1.67 µM, the TGI [2] was 3.5 µM and the TGI [3] was 3.37 µM. The TGI [4] was 3.43 µM, the TGI [5] was 4.43 µM and the TGI [6] was 3.15 µM. It also gave a TGI [7] of 0.572 µM, a TGI [8] of 3.27 µM and a TGI [9] of 3.61 µM. It also gave a TGI [10] of 3.19 µM, a TGI [11] of 2.09 µM and a TGI [12] of 1.62 µM. It also gave a TGI [13] of 2.94 µM, a TGI [14] of 17 µM and a TGI [15] of 10.3 µM. The TGI [16] was 3.89 µM, the TGI [17] was 2.93 µM and the TGI [18] was 3.89 µM. The TGI [19] was 3.84 µM, the TGI [20] was 3.2 µM and the TGI [21] was 3.76 µM. It also gave a TGI [22] of 3.11 µM, a TGI [23] of 2.72 µM and a TGI [24] of 2.96 µM. The TGI [25] was 4.03 µM, the TGI [26] was 3.21 µM and the TGI [27] was 3.49 µM. For the same molecule, the TGI [28] was 32.5 µM, the TGI [29] was 3.39 µM and the TGI [30] was 11.9 µM. The TGI [31] was 5.66 µM, the TGI [32] was 3.21 µM and the TGI [33] was 5.66 µM. For the same molecule, the TGI [34] was 4.53 µM, the TGI [35] was 14.1 µM and the TGI [36] was 3.27 µM. The TGI [37] was 11.6 µM, the TGI [38] was 11.4 µM and the TGI [39] was 5.13 µM. It also gave a TGI [40] of 3.53 µM, a TGI [41] of 6.75 µM and a TGI [42] of 2.7 µM. It also gave a TGI [43] of 4.73 µM, a TGI [44] of 3.31 µM and a TGI [45] of 3.41 µM. For the same molecule, the TGI [46] was 3.98 µM, the TGI [47] was 3.59 µM and the TGI [48] was 3.96 µM. It also gave a TGI [49] of 3.62 µM, a TGI [50] of 3.32 µM and a TGI [51] of 11.7 µM. The TGI [52] was 24.1 µM and the TGI [53] was 4.35 µM.
